US20190374554A1, “USE OF OXYGENATED CHOLESTEROL SULFATES (OCS) TO TREAT INFLAMMATORY SKIN DISEASE AND SKIN LESIONS” (Virginia Commonwealth University, priority 2016, published 2019)

What was measured:
[1] = test system: Beagle dogs; experiment: Two-week SC injection study in dogs; assay type: in vivo
Procedure: In a separate study, Beagle dogs (n=4/sex/dose group) received daily SC injections for 2 weeks. The solution that was tested included 30 mg/mL of 25HC3 S sodium salt in vehicle (250 mg/mL hydroxypropyl-β-cyclodextrin in 10 mM sodium phosphate buffer). Dose levels of 0 (vehicle), 3, 10 and 30 mg/kg of 25HC3S were administered in dose volumes of 1.0, 0.1, 0.33 and 1.0 mL/kg. Following 14 days of dose administration, all dogs were euthanized and necropsied.

[2] = test system: IMQ-induced psoriasis-like back skin and ear lesions; experiment: Imiquimod (IMQ)-induced psoriasis mouse model, skin scoring (erythema, scaling, thickness); assay type: in vivo, Balb/C mice; settings: mice; intradermal injection into back lesion Days 1 and 4; vs vehicle (FIG. 2)
Procedure: The subjects for the study were 40 male Balb/C mice (18-22 g). […] The backs of all mice were shaved for an area of 1.5 cm×2 cm.
Formulation A was a clear solution of 25 HC3S sodium salt (30 mg/mL) in a solution vehicle (250 mg/mL hydroxypropyl betadex (beta cyclodextrin, 2-hydroxypropyl ether, a partially substituted poly(hydroxypropyl) ether of beta cyclodextrin) and 10 mM sodium phosphate buffer in sterile water). Vehicle was stored at 2-8° C. storage and placed at room temperature for 30 min. prior to mixing with powdered 25HC3S just prior to use. Dissolution of the 25HC3S in Vehicle A was rapid and appeared to be complete upon mixing.
Formulation B was a milky suspension of 25HC3S sodium salt (25 mg/mL) in a suspension vehicle (30 mg/mL polyethylene glycol 3350, 3 mg/mL polysorbate 80, 7.5 mg/mL NaCl, and 10 mM sodium phosphate buffer in sterile water). The 25HC3S was milled using a Fluid Energy Model 00 Jet-O-Mizer™ to approximately a 5 microns average particle size (measured by a Malvern Mastersizer 2000 equipped with a hydro 2000S dispersion cell) prior to addition to the vehicle. […]
Mice were monitored for signs of distress and daily photos of the back lesions were taken. Erythema, scaling, and thickness of the back skin was scored daily on a scale from 0 to 4 by an independent scorer (blind), where 0=none; 1=slight; 2=moderate; 3=marked; and 4=very marked. […]

C[C@H](CCCC(C)(C)O)[C@H]1CC[C@H]2[C@@H]3CC=C4C[C@@H](OS(=O)(=O)[O-])CC[C@]4(C)[C@H]3CC[C@]12C.[Na+] [Formulation 25HC3S, 5-cholesten-3, 25-diol, 3-sulfate]
swelling at the site of injection ([1]; daily SC 2 weeks, compared to vehicle only (FIG. 1C)): markedly decreased
fibroplasia, hemorrhage, inflammation and necrosis in injection sites: incidence and severity ([1]; daily SC 3, 10, 30 mg/kg, 2 weeks (FIG. 1B)): generally higher in vehicle controls compared to drug-treated dogs
erythema (redness) of the back skin [2]: promotes reduction in erythema
